Assay results from ChEMBL document CHEMBL2439965, “Dialkylimidazole inhibitors of Trypanosoma cruzi sterol 14α-demethylase as anti-Chagas disease agents” (Bioorg Med Chem Lett, 2013).

What was measured:
physchem = settings: octanol/water
Description: Lipophilicity, log P of the compound

[1] = Cytotoxicity against human CRL8155 cells; type: cell-based
Trypanosoma cruzi = experiment: microbe, parasite or virus in culture; settings: Tulahuen, NIH3T3, 168 h
Description: Antitrypanosomal activity against Trypanosoma cruzi Tulahuen infected in 3T3 cells after 7 days by beta-galactosidase assay

[2] = Inhibition of recombinant Trypanosoma cruzi sterol 14-alpha-demethylase by spectrophotometry

COc1ccc(NCc2cncn2Cc2ccc(-c3ccccc3)cc2N)nc1-c1ccccc1
logP (physchem): 5 | IC50 [1]: > 5000 nM | EC50 (Trypanosoma cruzi): 0.2 nM | Kd [2]: 490 nM
